The text below walks through data of patent US20150101077A1, “INDUCIBLE PROMOTER SEQUENCES FOR REGULATED EXPRESSION AND METHODS OF USE” (PIONEER HI-BRED INTERNATIONAL INC, priority 2012, published 2015).

For assay [1], the system named is 1.7 kb ZmCAS1 promoter. Briefly: Western analysis of MS45 protein in ms45/ms45 maize plants transformed with PHP16973. Type of assay: in vivo. Conditions: PHP16973 plants watered with 30 mg of CBSU, collected 2 days later.
The test system of assay [2] is 1.7 kb ZmCAS1 promoter. The experiment in a line: GUS expression in leaf punches of maize plants transformed with PHP16975. Particulars: 2 days after watering with 30 mg of 2-CBSU, 3 PHP16975 plants, FIG. 5. Type of assay: in vivo. The procedure:
Plants were also regenerated from callus events containing PHP16975 and grown in the greenhouse to approximately the 5 leaf stage. At this stage of development, leaf punches from plants regenerated from the 3 bialophos-resistant events shown in FIG. 5 were collected pre- (C) and post-watering (S) with 30 mg of 2-CBSU to examine GUS expression in leaf in response to application of the safener.

Assay [3] concerns 1.0 kb ZmCAS1 promoter. The experiment in a line: Northern analysis of MS45 mRNA in ms45/ms45 maize callus transformed with PHP16972. Type of assay: cell-based. Conditions: 100 mg/liter CBSU, room temperature, 18 hours, FIG. 6. The source says: T-DNA vectors PHP16972 (SEQ ID NO:13, ZmCAS1HindIII Pro: MS45/35S:PAT) and PHP16973 (SEQ ID NO: 14, ZmCAS1 BamPro:MS45/35S:PAT) were used to transform maize callus which was generated to contain a segregating population of MS45/ms45 heterozygous and ms45/ms45 homozygous mutant plants. In order to detect MS45 RNA or protein expression under the control of the 1.0 or 1.7 kb ZmCAS promoter in maize anthers, plants containing a naturally occurring mutation in the maize MS45 gene which results in loss of MS45 RNA and protein were used for these studies. Pollen from MS45/ms45 plants were used to fertilize male-sterile ms45/ms45 plants for the purpose of generating embryos which would be ms45/ms45 as described in Cigan et al 2001. […] Five random bialophos-resistant callus events containing integrated copies of PHP16972 were placed onto maintenance media (FIG. 5, (−)) and maintenance media containing 100 mg/liter safener CBSU-2 (FIG. 5 (+)) at room temperature for 18 hours, removed and PolyA+RNA prepared and used for RNA analysis as described (Cigan et al. 2001. Sex. Plant Reprod. 14, 135-142) using the ZmMS45 and ZmActin probes for hybridization analysis. […] A very low signal was observed when callus was grown in the absence of CBSU. Actin was used as a control probe to show nearly equivalent RNA levels were present in all samples. […]

For assay [4], the system named is 1.7 kb ZmCAS1 promoter. The experiment in a line: X-Gluc GUS staining of maize callus transformed with PHP16975. Type of assay: cell-based. Conditions: room temperature, 18 hours, FIG. 4A. The source says:
Agrobacterium-mediated transformation of immature embryos was used to generate integrated copies of PHP16974 (SEQ ID NO:11; ZmCAS1HindIII Pro:GUS/35SPAT) comprising the 1.0 kb ZmCAS1 promoter (SEQ ID NO:9), PHP16975 (SEQ ID NO:12, ZmCAS1BamPro:GUS/35SPAT) comprising the 1.7 kb ZmCAS1 promoter (SEQ ID NO:10) and PHP16972 (SEQ ID NO:13, ZmCAS1 HindIII Pro:MS45/35SPAT) comprising the 1.0 kb ZmCAS1 promoter or PHP16973 (SEQ ID NO:14, ZmCASIBamPro:MS45/35SPAT:) comprising the 1.7 kb ZmCAS1 promoter.
To determine whether the 1.7 kb or the 1.0 kb ZmCAS1 promoter from maize could direct induced expression of the GUS reporter, three bialophos-resistant callus events were placed onto maintenance media and maintenance media containing increasing amounts of the safener CBSU-2 for at room temperature for 18 hours, removed and stained with X-Gluc to detect GUS activity.

Another assay has as its system ZmCAS1 transcript. Briefly: Northern blot of maize RNA with ZmCAS1 probe after CBSU treatment. Type of assay: in vivo. Particulars: for ZmCAS1 hybridization signal in anther mRNA: FIG. 2. On the procedure: Wild type maize plants were grown to the meiosis stage of microspore development. Plants were watered with 30 mg 2-CBSU and allowed to develop to the quartet and early vacuolate stage of microspore development. PolyA+ anther RNA was isolated from wild type control and CBSU treated plants and stored. A cDNA library was constructed from mRNAs isolated from CBSU-treated plants, arrayed onto nylon filters and stored. A cDNA subtraction library was generated using the Clontech PCR-Select cDNA Subtraction Kit (#K1804-1) following the manufacturer's instructions to enrich for CBSU-specific transcripts. Using this approach anther PolyA+mRNA from wild-type plants was used to enrich for transcripts found in the anther PolyA+mRNA from CBSU treated plants. This cDNA subtraction library was subcloned into pSPORT (BRL) vector, colonies plated, picked and sequenced. Among the vector inserts sequenced, two DNA sequences were present at a high proportion, at more than 10% of the inserts sequenced, and referred to as ZmCAS1c-1 (477 bp; SEQ ID NO: 1) and ZmCAS1c-2 (438 bp; SEQ ID NO: 2) (QBSU-Anther-Subtract 1). Both ZmCAS1c-1 and ZmCAS1c-2 had sequence identity to mannitol dehydrogenases from plants. ZmCASlc-1 and ZmCAS1c-2 DNA fragments were used as hybridization probes to screen the filter arrayed cDNA CBSU-anther library described above to isolate full-length cDNA containing hybridizing clones. Both ZmCAS1c-1 and ZmCAS1c-2 identified identical cDNA clones. […]
(§1) To determine whether the ZmCAS1 cDNA was 1) induced in maize anthers by CBSU-treatment and 2) reduced or absent in tapetum and microspore-ablated maize anthers from CBSU-treated 5126:DAM plants, a 477 bp ZmCAS1c-1 DNA fragment (SEQ ID NO:1), as well as DNA fragments from ZmMS45, Zm5126, ZmActin, and ZmUbiquitin (Cigan et al. 2001. […] MS45 and 5126 transcripts were easily detected in anther RNAs from male-fertile plants but absent in anther RNAs from male-sterile plants (FIG. 2) further supporting the observation that these RNAs are localized to the maize tapetum (Cigan et al. 2001. Sex. Plant Reprod. 14, 135-142).

The next assay deals with IN2-2 transcript. The experiment in a line: Northern blot of maize anther RNA with IN2-2 probe after CBSU treatment. Type of assay: in vivo. Particulars: CBSU-treated male-fertile and male-sterile plants, FIG. 2. The procedure: Wild type maize plants were grown to the meiosis stage of microspore development. Plants were watered with 30 mg 2-CBSU and allowed to develop to the quartet and early vacuolate stage of microspore development. PolyA+ anther RNA was isolated from wild type control and CBSU treated plants and stored. A cDNA library was constructed from mRNAs isolated from CBSU-treated plants, arrayed onto nylon filters and stored. A cDNA subtraction library was generated using the Clontech PCR-Select cDNA Subtraction Kit (#K1804-1) following the manufacturer's instructions to enrich for CBSU-specific transcripts. Using this approach anther PolyA+mRNA from wild-type plants was used to enrich for transcripts found in the anther PolyA+mRNA from CBSU treated plants. […]
as §1

The subject of assay [5] is 1.0 kb ZmCAS1 promoter. Briefly: X-Gluc GUS staining of rice callus transformed with PHP16974. Type of assay: cell-based, Oryza sativa cv.Kitaake. Particulars: PHP16974 callus events, 100 mg/liter CBSU, 24 hours, FIG. 9. The text has this:
To determine whether the ZmCAS1 promoter could conditionally regulate expression in response to safener treatment or heat treatment in plant species other than maize, Agrobacterium-mediated transformation was used to generate integrated copies of PHP16974 (ZmCAS1HindIII Pro:GUS) comprising the truncated 1.0 kb ZmCAS1 promoter for studies in rice. Scutellum from 10-14 day old germinating seeds (Oryza sativa cv.Kitaake) was used for rice transformation experiment (Toki. 1997, PI Mol. Biol Reporter 15:16-21). Bialophos-resistant callus events containing PHP16974 were selected and screened for their ability to respond to safener application. Four independent bialophos-resistant events were grown on maintenance media or maintenance media containing 100 mg/liter CBSU for 24 hours, removed and stained with X-Gluc. […] PHP16974 bialophos-resistant events were regenerated into plants. Leaf tissue was collected from these plants and used for DNA hybridization analyses to identify single-copy PHP16974 insertions. These plants were allowed to set selfed seed and were used for subsequent studies to monitor GUS expression under the transcriptional control of the ZmCAS1 promoter. Sixteen seed were selected from 2 single-copy PHP16974 events were sterilized, grown on hormone-free media at 28° C. or 37° C. for 48 hours and allowed to germinate. […]

In assay [6] the test system is 1.0 kb ZmCAS1 promoter. Briefly: X-Gluc GUS staining of maize callus transformed with PHP16974. Type of assay: cell-based. Conditions: seven PHP16974 callus events, 100 mg/liter CBSU, room temperature, FIG. 4B.

The structures appear in SMILES notation.

Consider `NC(=O)NS(=O)(=O)c1ccccc1Cl` [CBSU, N-(aminocarbonyl)-2-chlorobenzenesulfonamide], for which the “MS45 protein in leaf extracts” value in the assay on 1.7 kb ZmCAS1 promoter [1] (FIG. 7) is given as “increased steady-state levels of the MS45 protein”. Also, the “MS45 protein in anther extracts” value with 1.7 kb ZmCAS1 promoter [1] (FIG. 8) was “Increased MS45 protein”. Besides, in the assay on 1.7 kb ZmCAS1 promoter [2], the “GUS expression in leaf punches” value is “strong GUS expression”. Further, in the assay on 1.0 kb ZmCAS1 promoter [3], the “MS45 mRNA hybridization signal in callus” value is recorded as “strong induction of a hybridization signal”. Besides, the “GUS expression in callus” value with 1.7 kb ZmCAS1 promoter [4] (10 mg/l CBSU) is given as “low levels of GUS expression”; in the assay on 1.7 kb ZmCAS1 promoter [4] (100 mg/l CBSU), “strong GUS expression”; in the assay with 1.0 kb ZmCAS1 promoter [6], “inducible GUS expression”. For the same compound, the “ZmCAS1 hybridization in mRNAs from callus, leaf and anther” value with ZmCAS1 transcript (maize callus or leaf treated with CBSU, FIG. 3) is recorded as “strong hybridization”. The “ZmCAS1 hybridization signal in anther mRNA” value in the assay on ZmCAS1 transcript (male-fertile CBSU-treated plants (+, F)) was “strong hybridization signals”; in the assay with ZmCAS1 transcript (male-sterile 5126:DAM CBSU-treated plants (+, S)), “reduced ZmCAS1 signal”. Besides, in the assay on IN2-2 transcript, the “IN2-2 hybridization signal in anther mRNA” value was “strong hybridization signals”. The “GUS expression in rice callus” value in the assay on 1.0 kb ZmCAS1 promoter [5] was “strong GUS expression”.
